Experimental data: patent US9249147B2, “Tyrosine kinase inhibitors” (CHEMBRIDGE CORPORATION, priority 2008, dated 2016)
Where “and” joins values, the source holds several entries; their conditions need not be identical. Equal values may be shown once. Read-outs that look alike come from different tables or passages of the source.

How the values were obtained:
[1] = biological target: hERG (Homo sapiens, UniProt Q12809); experiment: hERG standard patch clamp in HEK293 (Cerep ADMET Study 13170); type: cell-based; conditions: 1 μM
Method: The cardiac potassium channel, hERG, is responsible for the rapid delayed rectifier current (IKr) in the human ventricle. Inhibition of IKr is the most common cause of cardiac action potential prolongation by noncardiac drugs. Increased action potential duration causes prolongation of the QT interval that has been associated with a dangerous ventricular arrhythmia, torsade de pointer.
Compound (II) was initially tested at 1 μM concentration using a standard patch clamp protocol (Cerep ADMET Study 13170). The hERG channel was expressed in a human embryonic kidney (HEK293) cell line that lacks endogenous hERG channels. […] We have retested compound (II) in hERG assay in a range of lower concentrations to estimate IC50 of hERG inhibition more precisely (Qpatch 16 automated whole-cell patch clamp protocol in CHO-K1 cell line stably expressing hERG, Cerep hERG Study 13292). […] This kind of potency in hERG inhibition should not represent a significant clinical problem since the high degree of hERG inhibition would occur only at the compound concentrations above the expected therapeutic levels.

[2] = biological target: ALK (Homo sapiens, UniProt Q9UM73); experiment: Invitrogen SelectScreen Z-lyte kinase assay, ALK; type: biochemical; parameters: purchased Invitrogen (SelectScreen service); conditions: 100 μM ATP
Method: (§1) To evaluate selectivity versus other kinases, inhibition of various kinases by compound (II) was determined. In particular, IC50s for TrkA, Jak2, Axl tyrosine kinases were determined using ADP Hunter (DiscoverX) kinase assay. Single point profiling of compound (II) on 50 human tyrosine kinases and 10 Ser-Thr kinases was done at Upstate/Millipore by radiometric assay. […] The subset of the 520 kinases in the human kinome that were tested was strategically selected to cover most of the therapeutically relevant tyrosine kinases and to represent major branches of serine-threonine kinases.
(§2) Compound (II) was a multitargeted tyrosine kinase (TK) inhibitor with a distinct pattern of inhibition focused on ALK, Trk family, Ros and Ret kinases. Invitrogen SelectScreen (Z-lyte assay) produced the following IC5O values for this set of kinases: ALK 9.75 nM, TrkA 1.5 nM, TrkB 1.4 nM, TrkC 1.8 nM, Ret 7.1 nM, Ros 1.8 nM (all measured at 100 μM ATP). […] About 70% of the 50 TKs tested have selectivity in excess of 50-fold for ALK and higher for Ret, Ros and Trk family members.

[3] = biological target: T1, TrkC (Homo sapiens, UniProt Q16288); experiment: Invitrogen SelectScreen Z-lyte kinase assay, TrkC; type: biochemical; conditions: 100 μM ATP
T1 construct: purchased Invitrogen (SelectScreen service)
Method: as §1, §2

[4] = test system: 10 Ser-Thr kinases; experiment: Single point radiometric profiling on Ser-Thr kinases (Upstate/Millipore); type: biochemical; conditions: 50 nM compound
Method: as §1

[5] = biological target: RET (Homo sapiens, UniProt P07949); experiment: Invitrogen SelectScreen Z-lyte kinase assay, Ret; type: biochemical; parameters: purchased Invitrogen (SelectScreen service); conditions: 100 μM ATP
Method: as §1, §2

[6] = Pharmacokinetics study in CD-1 mice (IV, PO); type: in vivo; conditions: for MRT inf: read-out: MRT(0-∞); for concentration at 4 h: time point 4, Mean
Method: A comprehensive PK study was run in CD-1 strain of mice with IV (1 mg/kg) and PO (5 mg/kg) routes of drug delivery and analytical data collection at 10 time points over 24 hours (Medicilon, Study CRL0703).
Blood samples were collected by removing the eyeballs at pre-dose and 0.083, 0.25, 0.5, 1, 2, 4, 6, 8, and 24 hours post-dose. The plasma samples and the dose formulation were stored at −20° C. until bioanalysis.

[7] = biological target: T2, Src (Homo sapiens, UniProt P12931); experiment: Invitrogen SelectScreen Z-lyte kinase assay, Src; type: biochemical
T2 construct: purchased Invitrogen

[8] = Solubility in acidic aqueous formulation vehicle; type: physicochemical; conditions: pH 4-6
Method: The solubility of compound (II) in aqueous buffers has been tested at Cerep, as part of ADMET Study 13170. […] Such aqueous solubility was at least as good as or higher than a typical one for a small molecule, ATP-competitive kinase inhibitor. The compound has much higher aqueous solubility at lower pH. 20-50 mM acetic or tartaric acid (pH 4-6) was used to dissolve the compound at concentrations up to 5 mg/ml (or ˜10 mM); this type of formulation was used for our animal toxicity and PK studies. Compound (II) was also well soluble in such organic solvents as DMSO or N-methyl pyrrolidone and can be subsequently solubilized in aqueous formulations containing 2% Tween 80 or 5-20% Solutol HS15.

[9] = CD-1, mouse, plasma, iv, 1 mg/kg, IV 1 mg/kg, CD-1 mice, Mean
[10] = CD-1, mouse, plasma, iv, 1 mg/kg, IV 1 mg/kg, individual animals A-D
[11] = IV 1 mg/kg, individual animals A-D, 1 mg/kg

T1 sequence (Q16288 32-839): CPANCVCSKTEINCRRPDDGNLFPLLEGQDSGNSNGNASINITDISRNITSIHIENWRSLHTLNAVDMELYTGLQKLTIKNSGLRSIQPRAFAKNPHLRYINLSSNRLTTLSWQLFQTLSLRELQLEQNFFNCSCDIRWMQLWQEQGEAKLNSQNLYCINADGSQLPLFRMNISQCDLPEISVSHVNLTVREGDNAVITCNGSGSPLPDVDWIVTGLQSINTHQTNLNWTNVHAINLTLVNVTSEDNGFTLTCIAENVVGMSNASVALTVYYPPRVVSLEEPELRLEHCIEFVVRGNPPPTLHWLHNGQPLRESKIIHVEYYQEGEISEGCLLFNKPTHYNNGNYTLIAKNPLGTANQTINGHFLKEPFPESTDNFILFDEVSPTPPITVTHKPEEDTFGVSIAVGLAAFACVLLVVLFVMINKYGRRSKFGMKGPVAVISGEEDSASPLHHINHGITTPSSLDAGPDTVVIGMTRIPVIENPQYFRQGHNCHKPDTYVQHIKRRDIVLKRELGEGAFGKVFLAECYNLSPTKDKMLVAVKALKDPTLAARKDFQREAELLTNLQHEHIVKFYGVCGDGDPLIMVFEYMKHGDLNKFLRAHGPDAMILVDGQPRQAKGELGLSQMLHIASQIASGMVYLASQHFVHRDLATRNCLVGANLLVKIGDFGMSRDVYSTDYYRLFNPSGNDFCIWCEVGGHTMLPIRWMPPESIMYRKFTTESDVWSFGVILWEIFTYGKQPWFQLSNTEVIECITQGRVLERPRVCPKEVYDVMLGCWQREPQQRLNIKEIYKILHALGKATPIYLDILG
Chain of ALK (Q9UM73 19-1620): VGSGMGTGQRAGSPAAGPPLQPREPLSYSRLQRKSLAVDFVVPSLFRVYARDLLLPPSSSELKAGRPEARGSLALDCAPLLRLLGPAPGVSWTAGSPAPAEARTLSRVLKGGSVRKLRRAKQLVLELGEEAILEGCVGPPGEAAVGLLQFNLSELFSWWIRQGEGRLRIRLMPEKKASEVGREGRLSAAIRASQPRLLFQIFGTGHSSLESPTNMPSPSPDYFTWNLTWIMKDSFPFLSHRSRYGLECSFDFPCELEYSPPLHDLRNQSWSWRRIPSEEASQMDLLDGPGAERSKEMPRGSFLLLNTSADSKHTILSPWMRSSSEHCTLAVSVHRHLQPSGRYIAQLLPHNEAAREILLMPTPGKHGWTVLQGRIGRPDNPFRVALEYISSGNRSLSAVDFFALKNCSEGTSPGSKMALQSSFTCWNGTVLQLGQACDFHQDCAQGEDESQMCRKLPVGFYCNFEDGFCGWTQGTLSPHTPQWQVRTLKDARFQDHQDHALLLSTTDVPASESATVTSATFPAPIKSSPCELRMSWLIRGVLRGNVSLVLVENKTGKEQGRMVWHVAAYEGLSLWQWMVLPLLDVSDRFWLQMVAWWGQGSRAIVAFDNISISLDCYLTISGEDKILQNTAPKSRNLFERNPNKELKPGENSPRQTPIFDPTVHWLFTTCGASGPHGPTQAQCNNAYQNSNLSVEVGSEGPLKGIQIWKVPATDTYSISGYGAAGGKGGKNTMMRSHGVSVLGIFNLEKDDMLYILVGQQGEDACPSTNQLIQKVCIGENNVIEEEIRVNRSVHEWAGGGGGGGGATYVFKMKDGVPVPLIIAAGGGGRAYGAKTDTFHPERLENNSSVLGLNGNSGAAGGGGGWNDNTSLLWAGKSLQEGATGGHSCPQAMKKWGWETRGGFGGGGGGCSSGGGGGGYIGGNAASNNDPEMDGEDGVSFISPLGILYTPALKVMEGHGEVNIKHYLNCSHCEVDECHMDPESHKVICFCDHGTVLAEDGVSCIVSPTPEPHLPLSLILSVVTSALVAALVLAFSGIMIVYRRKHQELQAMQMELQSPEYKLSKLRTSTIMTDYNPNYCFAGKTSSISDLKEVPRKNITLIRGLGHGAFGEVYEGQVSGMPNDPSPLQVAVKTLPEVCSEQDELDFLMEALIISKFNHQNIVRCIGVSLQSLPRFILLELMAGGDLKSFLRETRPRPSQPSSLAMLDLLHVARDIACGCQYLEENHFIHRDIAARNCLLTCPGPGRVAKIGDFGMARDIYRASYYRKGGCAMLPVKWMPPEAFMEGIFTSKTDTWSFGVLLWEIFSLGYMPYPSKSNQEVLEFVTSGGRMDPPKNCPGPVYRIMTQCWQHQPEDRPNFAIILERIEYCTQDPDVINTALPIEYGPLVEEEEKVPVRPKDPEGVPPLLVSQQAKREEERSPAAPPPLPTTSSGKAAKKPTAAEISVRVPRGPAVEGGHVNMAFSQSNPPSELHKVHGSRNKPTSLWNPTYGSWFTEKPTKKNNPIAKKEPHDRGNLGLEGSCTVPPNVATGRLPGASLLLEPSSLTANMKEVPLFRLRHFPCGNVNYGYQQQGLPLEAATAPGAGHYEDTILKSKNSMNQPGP
T2 sequence (P12931 whole entry): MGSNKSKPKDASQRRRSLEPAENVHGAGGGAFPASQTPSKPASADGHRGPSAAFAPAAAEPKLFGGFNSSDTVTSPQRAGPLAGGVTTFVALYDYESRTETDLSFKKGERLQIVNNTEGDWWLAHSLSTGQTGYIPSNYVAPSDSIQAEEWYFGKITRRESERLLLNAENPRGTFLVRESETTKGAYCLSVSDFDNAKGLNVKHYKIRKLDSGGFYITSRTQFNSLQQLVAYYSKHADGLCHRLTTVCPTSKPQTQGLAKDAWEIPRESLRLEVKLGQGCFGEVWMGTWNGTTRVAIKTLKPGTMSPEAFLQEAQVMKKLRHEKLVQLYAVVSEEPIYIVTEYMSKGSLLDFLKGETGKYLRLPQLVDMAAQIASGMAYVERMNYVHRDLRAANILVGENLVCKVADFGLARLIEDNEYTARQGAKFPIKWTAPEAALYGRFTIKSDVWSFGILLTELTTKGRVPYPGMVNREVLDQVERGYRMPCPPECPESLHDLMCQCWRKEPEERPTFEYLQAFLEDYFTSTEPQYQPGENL
Chain of RET (P07949 29-1114): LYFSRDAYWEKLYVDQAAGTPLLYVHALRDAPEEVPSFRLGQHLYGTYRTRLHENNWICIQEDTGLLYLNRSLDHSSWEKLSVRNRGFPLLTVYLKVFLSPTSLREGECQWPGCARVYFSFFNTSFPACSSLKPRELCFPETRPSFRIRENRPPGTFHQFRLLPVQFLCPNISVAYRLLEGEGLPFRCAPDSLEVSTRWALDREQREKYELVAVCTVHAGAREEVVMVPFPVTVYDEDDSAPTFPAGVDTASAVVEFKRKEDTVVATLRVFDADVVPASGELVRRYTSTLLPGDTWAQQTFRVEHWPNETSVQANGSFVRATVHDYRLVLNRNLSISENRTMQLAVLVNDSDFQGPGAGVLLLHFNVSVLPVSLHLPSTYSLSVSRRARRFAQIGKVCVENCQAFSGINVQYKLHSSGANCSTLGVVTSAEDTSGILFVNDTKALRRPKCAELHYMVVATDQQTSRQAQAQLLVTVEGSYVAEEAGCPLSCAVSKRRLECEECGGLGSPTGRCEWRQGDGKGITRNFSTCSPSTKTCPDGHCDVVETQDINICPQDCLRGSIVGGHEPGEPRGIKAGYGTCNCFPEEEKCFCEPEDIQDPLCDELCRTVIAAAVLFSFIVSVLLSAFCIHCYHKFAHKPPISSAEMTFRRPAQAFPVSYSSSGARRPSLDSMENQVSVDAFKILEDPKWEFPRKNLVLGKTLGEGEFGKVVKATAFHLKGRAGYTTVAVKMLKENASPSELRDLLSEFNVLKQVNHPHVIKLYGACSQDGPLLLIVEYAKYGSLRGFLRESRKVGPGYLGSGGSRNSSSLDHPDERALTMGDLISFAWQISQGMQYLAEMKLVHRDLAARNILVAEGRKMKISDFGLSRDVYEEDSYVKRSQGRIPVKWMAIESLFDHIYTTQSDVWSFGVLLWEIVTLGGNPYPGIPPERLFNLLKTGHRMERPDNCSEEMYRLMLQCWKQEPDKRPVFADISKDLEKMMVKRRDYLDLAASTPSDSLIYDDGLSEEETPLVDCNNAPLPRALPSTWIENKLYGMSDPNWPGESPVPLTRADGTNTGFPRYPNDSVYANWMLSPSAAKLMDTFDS

Cc1ccc(F)cc1C[C@H](C)Nc1cc[nH]c(=O)c1-c1nc2cc3c(cc2[nH]1)C(=O)N(CCN1CCCC1)C3 [compound (II)]
% inhibition of tail current [1]: 50.4%
IC50 [2]: 9.75 nM
IC50 [3]: 1.8 nM
Inhibition of 10 structurally diverse Ser-Thr kinases [4]: did not cause any significant inhibition
IC50 [5]: 7.1 nM
AUC(0-inf) [6, 9]: 105 ng·h/mL
Tmax [6, 9]: 4.8 min
AUC(0-t) ([6]; CD-1, mouse, plasma, iv, 1 mg/kg, IV 1 mg/kg, CD-1 mice, Mean, read-out: AUC(0-t)): 102 ng·h/mL
Cmax ([6]; CD-1, mouse, plasma, iv, 1 mg/kg, IV 1 mg/kg, CD-1 mice, Mean, read-out: Cmax): 186 ng/mL
MRT inf [6, 9]: 1.36 h
AUC(0-inf) [6, 10]: 102 ng·h/mL
Tmax [6, 10]: 4.98 min
AUC(0-t) ([6]; CD-1, mouse, plasma, iv, 1 mg/kg, IV 1 mg/kg, individual animals A-D, read-out: AUC(0-t)): 100 ng·h/mL
Cmax ([6]; CD-1, mouse, plasma, iv, 1 mg/kg, IV 1 mg/kg, individual animals A-D, read-out: Cmax): 248 ng/mL
MRT inf [6, 10]: 1.37 h
concentration at […] ([6]; CD-1, mouse, plasma, iv, 1 mg/kg, IV 1 mg/kg, time point 0.083, Mean): 186 ng/mL
concentration at […] ([6]; CD-1, mouse, plasma, iv, 1 mg/kg, IV 1 mg/kg, time point 0.083, individual animals A-D): 163 ng/mL
concentration at […] ([6]; CD-1, mouse, plasma, iv, 1 mg/kg, IV 1 mg/kg, time point 0.35, Mean): 74 ng/mL
concentration at 0.5 h ([6]; CD-1, mouse, plasma, iv, 1 mg/kg, IV 1 mg/kg, time point 0.5, Mean): 32.9 ng/mL
concentration at 0.5 h ([6]; CD-1, mouse, plasma, iv, 1 mg/kg, IV 1 mg/kg, time point 0.5, individual animals A-D): 36.8 ng/mL
concentration at 1 h ([6]; CD-1, mouse, plasma, iv, 1 mg/kg, IV 1 mg/kg, time point 1, Mean): 18.9 ng/mL
concentration at 1 h ([6]; CD-1, mouse, plasma, iv, 1 mg/kg, IV 1 mg/kg, time point 1, individual animals A-D): 14.1 ng/mL
concentration at 2 h ([6]; CD-1, mouse, plasma, iv, 1 mg/kg, IV 1 mg/kg, time point 2, Mean): 10.2 ng/mL
concentration at 2 h ([6]; CD-1, mouse, plasma, iv, 1 mg/kg, IV 1 mg/kg, time point 2, individual animals A-D): 10.4 ng/mL
concentration at 4 h ([6]; CD-1, mouse, plasma, iv, 1 mg/kg, IV 1 mg/kg): 5.05 ng/mL
concentration at 6 h ([6]; CD-1, mouse, plasma, iv, 1 mg/kg, IV 1 mg/kg, time point 6, Mean): 2.18 ng/mL
concentration at 6 h ([6]; CD-1, mouse, plasma, iv, 1 mg/kg, IV 1 mg/kg, time point 6, individual animals A-D): 2.13 ng/mL
concentration at […] ([6]; CD-1, mouse, plasma, po, 5 mg/kg, PO 5 mg/kg, time point 0.083, Mean): 1.24 ng/mL
concentration at […] ([6]; CD-1, mouse, plasma, po, 5 mg/kg, PO 5 mg/kg, time point 0.083, individual animals A-D): 2.07 ng/mL
concentration at […] ([6]; CD-1, mouse, plasma, po, 5 mg/kg, PO 5 mg/kg, time point 0.35, individual animals A-D): 1.21 ng/mL
concentration at 2 h ([6]; CD-1, mouse, plasma, po, 5 mg/kg, PO 5 mg/kg, time point 2, Mean): 1.01 ng/mL
concentration at 2 h ([6]; CD-1, mouse, plasma, po, 5 mg/kg, PO 5 mg/kg, time point 2, individual animals A-D): 1.47 ng/mL
concentration at 4 h ([6]; CD-1, mouse, plasma, po, 5 mg/kg, PO 5 mg/kg): 3.64 ng/mL
concentration at 6 h ([6]; CD-1, mouse, plasma, po, 5 mg/kg, PO 5 mg/kg, time point 6, individual animals A-D): 1.34 ng/mL
CL2 ([6]; IV 1 mg/kg, CD-1 mice, Mean): 159 mL/min/kg
V2 ([6]; IV 1 mg/kg, CD-1 mice, Mean): 18.63 L/kg
AUC(0-t) [6, 11]: 96.033 ng·h/mL and 110.999 ng·h/mL and 102.243 ng·h/mL
AUC(0-∞) [6, 11]: 97.734 ng·h/mL and 116.619 ng·h/mL and 105.516 ng·h/mL
CL2 [6, 11]: 163.5 mL/min/kg and 170.53 mL/min/kg and 142.9 mL/min/kg and 158 mL/min/kg
Cmax [6, 11]: 144.182 ng/mL and 163.492 ng/mL and 186.531 ng/mL
MRT(0-∞) [6, 11]: 1.295 h and 1.614 h and 1.176 h
T1/2z [6, 11]: 1.16 h and 1.124 h and 1.81 h and 1.395 h
V2 [6, 11]: 16.427 L/kg and 16.598 L/kg and 22.401 L/kg and 19.076 L/kg
Plasma Concentration ([6]; IV 1 mg/kg, time point 0.083, individual animals A-D, 1 mg/kg): 186.53 ng/mL and 248.44 ng/mL and 144.18 ng/mL
Plasma Concentration ([6]; IV 1 mg/kg, time point 0.5, individual animals A-D, 1 mg/kg): 29.12 ng/mL and 31.99 ng/mL and 33.27 ng/mL
Plasma Concentration ([6]; IV 1 mg/kg, time point 1, individual animals A-D, 1 mg/kg): 19.36 ng/mL and 19.24 ng/mL and 22.93 ng/mL
Plasma Concentration ([6]; IV 1 mg/kg, time point 2, individual animals A-D, 1 mg/kg): 8.73 ng/mL and 9.58 ng/mL and 12.30 ng/mL
Plasma Concentration ([6]; IV 1 mg/kg, time point 4, individual animals A-D, 1 mg/kg): 8.09 ng/mL and 4.47 ng/mL and 3.14 ng/mL and 3.60 ng/mL
Plasma Concentration ([6]; IV 1 mg/kg, time point 6, individual animals A-D, 1 mg/kg): 1.81 ng/mL and 3.23 ng/mL and 1.77 ng/mL
Plasma Concentration ([6]; IV 1 mg/kg, time point 8, individual animals A-D): BLQ
Plasma Concentration ([6]; IV 1 mg/kg, time point 24, individual animals A-D): BLQ
Volume of distribution relative to total body water ([6]; IV, mice): 26 fold
Plasma Concentration ([6]; PO 5 mg/kg, time point 0.083, individual animals A-D, 5 mg/kg): 2.19 ng/mL and BLQ (2×)
Plasma Concentration ([6]; PO 5 mg/kg, time point 0.35, individual animals A-D, 5 mg/kg): BLQ
Plasma Concentration ([6]; PO 5 mg/kg, time point 0.5, individual animals A-D): BLQ
Plasma Concentration ([6]; PO 5 mg/kg, time point 1, individual animals A-D): BLQ
Plasma Concentration ([6]; PO 5 mg/kg, time point 2, individual animals A-D, 5 mg/kg): 1.00 ng/mL and BLQ (2×)
Plasma Concentration ([6]; PO 5 mg/kg, time point 4, individual animals A-D, 5 mg/kg): 6.06 ng/mL and 1.90 ng/mL and 1.22 ng/mL and 5.39 ng/mL
Plasma Concentration ([6]; PO 5 mg/kg, time point 6, individual animals A-D, 5 mg/kg): BLQ
Plasma Concentration ([6]; PO 5 mg/kg, time point 8, individual animals A-D): BLQ
Plasma Concentration ([6]; PO 5 mg/kg, time point 24, individual animals A-D): BLQ
half-life ([6]; mouse, plasma, IV 1 mg/kg, CD-1 mice, Mean, read-out: T1/2z (plasma half-life) (converted)): 1.37 h
bioavailability ([6]; mouse, plasma, PO 5 mg/kg vs IV 1 mg/kg, CD-1 mice): < 1%
IC50 [7]: 32 nM
Concentration dissolved in 20-50 mM acetic or tartaric acid [8]: up to 5 mg/ml
